From PubChem BioAssay (NCI)
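48-hour exposure; five concentrations; linearly interpolated endpoints. The concentration for 50% growth inhibition is given as GI50. TGI is the concentration that stops growth completely.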 Where a SMILES comes first, the peptide text is derived from it. [ ]: non-standard residue; d: D form. The star is where a group is joined. ξ: configuration not given here. ξNMe2Val = CC(C)C(C(=O)*)N(C)C; NMeV = CN[CH](C(=O)O)C(C)C; NHBn = c1ccc(CN*)cc1

Legend:
Assay in all cases: inhibition of tumour cell growth, NCI panel, 48 h
KM12 colon = test system: KM12 colon
786-0 renal = test system: 786-0 renal
HOP-62 NSCLC = test system: HOP-62 NSCLC
RXF 393 renal = test system: RXF 393 renal
OVCAR-5 ovarian = test system: OVCAR-5 ovarian
NCI-H522 lung = test system: NCI-H522 lung
HL-60(TB) leukemia = test system: HL-60(TB) leukemia
MDA-N = test system: MDA-N
EKVX NSCLC = test system: EKVX NSCLC
BT-549 breast = test system: BT-549 breast
UO-31 renal = test system: UO-31 renal
U251 CNS = test system: U251 CNS
OVCAR-4 ovarian = test system: OVCAR-4 ovarian
NCI/ADR-RES ovarian = test system: NCI/ADR-RES ovarian
CCRF-CEM leukemia = test system: CCRF-CEM leukemia
NCI-H23 lung = test system: NCI-H23 lung
A549 NSCLC = test system: A549 NSCLC
SNB-19 CNS = test system: SNB-19 CNS
MDA-MB-231 breast = test system: MDA-MB-231 breast
SK-MEL-5 melanoma = test system: SK-MEL-5 melanoma
DU-145 prostate = test system: DU-145 prostate
NCI-H460 lung = test system: NCI-H460 lung
ACHN renal = test system: ACHN renal
CAKI-1 renal = test system: CAKI-1 renal
UACC-62 melanoma = test system: UACC-62 melanoma
COLO 205 colon = test system: COLO 205 colon
LOX IMVI melanoma = test system: LOX IMVI melanoma
SF-268 CNS = test system: SF-268 CNS
MALME-3M melanoma = test system: MALME-3M melanoma
SNB-75 CNS = test system: SNB-75 CNS
RPMI-8226 leukemia = test system: RPMI-8226 leukemia
IGROV1 ovarian = test system: IGROV1 ovarian
SK-OV-3 ovarian = test system: SK-OV-3 ovarian
SW-620 colon = test system: SW-620 colon
PC-3 prostate = test system: PC-3 prostate
HCT-15 colon = test system: HCT-15 colon
T-47D breast = test system: T-47D breast
HT29 colon = test system: HT29 colon
SF-295 CNS = test system: SF-295 CNS
HCT-116 colon = test system: HCT-116 colon
HOP-92 NSCLC = test system: HOP-92 NSCLC
OVCAR-8 ovarian = test system: OVCAR-8 ovarian
M14 melanoma = test system: M14 melanoma
SN12C renal = test system: SN12C renal
HS 578T breast = test system: HS 578T breast
UACC-257 melanoma = test system: UACC-257 melanoma
OVCAR-3 ovarian = test system: OVCAR-3 ovarian
SK-MEL-2 melanoma = test system: SK-MEL-2 melanoma

SMILES | TGI (786-0 renal) [µM] | TGI (HOP-62 NSCLC) [µM] | TGI (NCI-H522 lung) [µM] | TGI (MDA-N) [µM] | TGI (EKVX NSCLC) [µM] | TGI (OVCAR-4 ovarian) [µM] | TGI (NCI/ADR-RES ovarian) [µM] | TGI (A549 NSCLC) [µM] | TGI (MDA-MB-231 breast) [µM] | TGI (SK-MEL-5 melanoma) [nM] | TGI (DU-145 prostate) [µM] | TGI (NCI-H460 lung) [µM] | TGI (ACHN renal) [µM] | TGI (UACC-62 melanoma) [nM] | TGI (COLO 205 colon) [µM] | TGI (LOX IMVI melanoma) [nM] | TGI (SF-268 CNS) [µM] | TGI (MALME-3M melanoma) [µM] | TGI (SNB-75 CNS) [µM] | TGI (IGROV1 ovarian) [µM] | also measured
CC(C)C(NC(=O)C(C(C)C)N(C)C)C(=O)N(C)C(C(=O)N1CCCC1C(=O)N1CCCC1C(=O)NCc1ccccc1)C(C)C (configuration not stated) (ξNMe2Val-V[NMeV]PP-NHBn; configuration not given here) | > 100 | > 100 | 0.418 | < 0.0001 | > 100 | > 100 | 7.39 | > 100 | 0.000242 | 0.265 | 0.0117 | 0.0227 | > 100 | 10.5 | 0.00016 | 0.253 | > 100 | > 100 | 53.8 | > 100 | TGI (KM12 colon): < 0.1 nM; TGI (RXF 393 renal): > 100 µM; TGI (OVCAR-5 ovarian): 206 nM; TGI (HL-60(TB) leukemia): < 0.1 nM; GI50 (EKVX NSCLC): < 0.1 nM; TGI (BT-549 breast): 78.8 nM; TGI (UO-31 renal): > 100 µM; TGI (U251 CNS): 3.11 µM; GI50 (NCI/ADR-RES ovarian): 264 nM; TGI (CCRF-CEM leukemia): 1.44 nM; TGI (NCI-H23 lung): > 100 µM; TGI (SNB-19 CNS): > 100 µM; TGI (CAKI-1 renal): > 100 µM; TGI (RPMI-8226 leukemia): > 100 µM; TGI (SK-OV-3 ovarian): > 100 µM; TGI (SW-620 colon): > 100 µM
CC1(C)OC2C(COC(c3ccccc3)(c3ccccc3)c3ccccc3)OC(c3c[nH]c4c(N)ncnc34)C2O1 (configuration not stated) | 4.37 | 16.1 | 17.8 | 11 | 21.8 | 23.3 | 29 | 13.9 | 27.4 | 3050 | 18.9 | 10.5 | 13.3 | 4210 | 23.9 | 3260 | 21.4 | 16.8 | 19.6 | 17 | TGI (PC-3 prostate): 10.5 µM; TGI (HCT-15 colon): 15.2 µM; TGI (T-47D breast): 17.2 µM; TGI (HT29 colon): 7.15 µM; TGI (SF-295 CNS): 7.29 µM; TGI (HCT-116 colon): 15.9 µM; TGI (HOP-92 NSCLC): 18.5 µM; TGI (OVCAR-8 ovarian): 21.7 µM; TGI (M14 melanoma): 9.44 µM; TGI (SN12C renal): 15.4 µM; TGI (HS 578T breast): 28.4 µM; TGI (UACC-257 melanoma): 17.5 µM; TGI (OVCAR-3 ovarian): 9.26 µM; TGI (SK-MEL-2 melanoma): 29.3 µM; TGI (SK-OV-3 ovarian): 17.5 µM; TGI (SW-620 colon): 14.1 µM
